Data from article PMC7717699, “Tuning the activity of iminosugars: novel N-alkylated deoxynojirimycin derivatives as strong BuChE inhibitors” (Journal of Enzyme Inhibition and Medicinal Chemistry, 2020).
Read-outs that look alike come from different tables or passages of the source.

Tests used:
Type in all cases: biochemical
[1] = target: T1, β-galactosidase (Escherichia coli) (Escherichia coli, UniProt P00722); experiment: β-Galactosidase (E. coli) inhibition
T1 construct: purchased
Description: (§1) For both families of enzymes used herein (glycosidases and cholinesterases), stock solutions of the inhibitors were prepared in DMSO; DMSO content was kept at 5% (V/V) for glycosidases and 1.25% (V/V) for cholinesterases. Enzymes were properly dissolved in water in a concentration in which the rate of the reaction when using [S] = 4 × KM is in the range 0.12–0.15 Abs/min. In both kinds of enzymes, an initial screening at 100 µM inhibitor concentration was performed, using the following substrate concentrations: [S] = 0.25 mM for α-glucosidase (Saccharomyces cerevisiae), 4.0 mM for β-glucosidase (almonds), 0.60 mM for α-galactosidase (green coffee beans), 0.51 mM for β-galactosidase (Escherichia coli), 1.5 mM for β-galactosidase (Aspergillus Oryzae), 0.12 mM for AChE (Electrophorus electricus), 0.11 mM for BuChE (equine serum). […] Each assay was run in duplicate.
(§2) Glycosidase assays were accomplished using the methodology reported by Bols and co-workers[30]. Each set of experiments is prepared in PS cuvettes using 0.1 M phosphate buffer (pH 6.8) and the corresponding o- or p-nitrophenyl glycopyranosides as substrates. Reactions were monitored at 25 °C by following the formation of the corresponding nitrophenolates at 400 nm (glucosidases and α-galactosidase) or 420 nm (β-galactosidases) over a time of 125 s.
(§3) Assessment of the inhibitory capacity against glycosidases was accomplished using the methodology reported by Bols and co-workers[30]. p-Nitrophenyl glycosides (o- for β-galactosidases) were used as model substrates, and the release of the corresponding p-nitrophenolates at pH 6.8 was monitored spectrophotometrically (λmax = 400 or 420 nm for p- or o-nitrophenolates, respectively).

[2] = target: AChE (Electrophorus electricus) (Electrophorus electricus, UniProt O42275); experiment: AChE inhibition, Ellman's assay; conditions: for Mode of inhibition AChE: Cornish–Bowden method
Description: as §1
(§4) For cholinesterases, minor modifications on Ellman’s assay[31] were performed. The activity was measured in PS cuvettes containing […] (pH 8.0), 0.88 mM DTNB, and substrate (acetyl- and butyryl-thiocholine iodides for AChE and BuChE, respectively), The formation of the chromophore was monitored at 405 nm over a time of 125 s.
(§5) For strong inhibitors, the mode of inhibition was determined using the Cornish–Bowden method, which involves the use of two different plots: 1/v vs. [I] (Dixon plot) and [S]/v vs. [I]. For the calculation of kinetic parameters (KM, Vmax) a nonlinear regression analysis (least squares fit, GraphPad Prism 8.01) was used. Data are expressed as the mean ± SD.
(§6) Derivatives 11 and 12 were tested also against AChE (Electrophorus electricus) and BuChE (equine serum), as recognised models for human cholinesterases due to their close structural resemblance. For that purpose, Ellman’s colorimetric assay was used; this is an indirect test in which acetyl and butyryl thiocholine iodides are used as model substrates, which upon interaction with the enzyme release thiocholine, which in turn reacts with the chromogen reagent 5,5′-dithiobis(2-nitrobenzoic acid (DTNB) to give 2-nitro-5-mercaptobenzoate (at pH 8.0). The monitoring of the latter at 405 nm furnishes the kinetic parameters.

BuChE (equine serum) = target: T2, BuChE (equine serum) (Equus caballus, UniProt P81908); experiment: BuChE inhibition, Ellman's assay; conditions: for Mode of inhibition BuChE: Cornish–Bowden method
T2 construct: 0.11 mM for BuChE (equine serum); from tissue; host or cells: equine serum
Description: as §1, §4, §5, §6

[3] = target: T3, β-galactosidase (Aspergillus Oryzae) (Aspergillus oryzae, UniProt Q2UCU3); experiment: β-Galactosidase (A. oryzae) inhibition
T3 construct: purchased
T3 sequence (Q2UCU3 19-1005): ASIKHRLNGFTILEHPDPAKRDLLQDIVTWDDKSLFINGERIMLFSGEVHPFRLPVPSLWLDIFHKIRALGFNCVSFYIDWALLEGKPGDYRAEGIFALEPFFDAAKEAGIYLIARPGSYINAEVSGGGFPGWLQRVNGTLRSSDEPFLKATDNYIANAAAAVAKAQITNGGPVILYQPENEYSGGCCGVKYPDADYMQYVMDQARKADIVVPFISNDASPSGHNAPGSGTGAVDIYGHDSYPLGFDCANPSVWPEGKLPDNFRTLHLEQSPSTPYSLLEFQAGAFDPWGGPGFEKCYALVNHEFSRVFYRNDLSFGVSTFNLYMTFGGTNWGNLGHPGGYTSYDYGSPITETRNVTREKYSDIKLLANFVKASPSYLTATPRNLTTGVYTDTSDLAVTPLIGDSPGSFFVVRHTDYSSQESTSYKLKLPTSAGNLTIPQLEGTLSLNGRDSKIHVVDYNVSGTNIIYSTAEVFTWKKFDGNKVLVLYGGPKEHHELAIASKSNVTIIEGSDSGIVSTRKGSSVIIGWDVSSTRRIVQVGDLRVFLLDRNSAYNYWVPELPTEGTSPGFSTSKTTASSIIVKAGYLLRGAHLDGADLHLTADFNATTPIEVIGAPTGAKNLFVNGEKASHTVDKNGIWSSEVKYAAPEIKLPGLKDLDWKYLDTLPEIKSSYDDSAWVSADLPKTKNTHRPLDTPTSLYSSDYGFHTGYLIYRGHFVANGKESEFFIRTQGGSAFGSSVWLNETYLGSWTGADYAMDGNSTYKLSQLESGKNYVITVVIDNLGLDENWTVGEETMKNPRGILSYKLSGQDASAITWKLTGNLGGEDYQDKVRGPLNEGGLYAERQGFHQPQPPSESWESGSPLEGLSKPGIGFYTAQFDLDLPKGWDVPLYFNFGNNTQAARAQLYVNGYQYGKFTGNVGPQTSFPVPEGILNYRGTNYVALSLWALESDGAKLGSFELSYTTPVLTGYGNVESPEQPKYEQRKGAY
Description: as §1, §2, §3

β-glucosidase (almonds) = experiment: β-Glucosidase inhibition (p-nitrophenyl glycoside substrate); conditions: for Mode of inhibition β-Glucosidase: Cornish–Bowden method; for IC50: almond enzyme, pH 6.8, 25 °C; for Ki: binding to free enzyme, read-out: Kia β-Glucosidase
Description: as §1, §2, §5, §3

[4] = target: T4, α-glucosidase (Saccharomyces cerevisiae) (Saccharomyces cerevisiae, UniProt P53341); experiment: α-Glucosidase inhibition (p-nitrophenyl glycoside substrate)
T4 construct: purchased
Description: as §1, §2
(Dixon plot) and [S]/v vs. [I]. For the calculation of kinetic parameters (KM, Vmax) a nonlinear regression analysis (least squares fit, GraphPad Prism 8.01) was used. Data are expressed as the mean ± SD.
as §3

[5] = target: T5, α-galactosidase (green coffee beans) (Coffea arabica, UniProt Q42656); experiment: α-Galactosidase inhibition
T5 construct: purchased; host or cells: green coffee beans
Description: as §1, with “Enzymes” for “For both families of enzymes used herein (glycosidases and cholinesterases), stock solutions of the inhibitors were prepared in DMSO; DMSO content was kept at 5% (V/V) for glycosidases and 1.25% (V/V) for cholinesterases. Enzymes”
Glycosidase assays were accomplished using the methodology reported by Bols and co-workers[30]. Each set of experiments is prepared in PS cuvettes using 0.1 M phosphate buffer (pH 6.8) and the corresponding o- or p-nitrophenyl glycopyranosides as substrates.
as §3

[6] = Electrophorus electricus, pH 8.0, read-out: IC50 AChE
[7] = equine serum, pH 8.0, read-out: IC50 BuChE
[8] = binding to enzyme-substrate complex, read-out: Kib AChE
[9] = binding to free enzyme, read-out: Kia AChE
[10] = binding to enzyme-substrate complex, read-out: Kib BuChE
[11] = binding to free enzyme, read-out: Kia BuChE

Sequence of AChE (Electrophorus electricus) (O42275 24-633): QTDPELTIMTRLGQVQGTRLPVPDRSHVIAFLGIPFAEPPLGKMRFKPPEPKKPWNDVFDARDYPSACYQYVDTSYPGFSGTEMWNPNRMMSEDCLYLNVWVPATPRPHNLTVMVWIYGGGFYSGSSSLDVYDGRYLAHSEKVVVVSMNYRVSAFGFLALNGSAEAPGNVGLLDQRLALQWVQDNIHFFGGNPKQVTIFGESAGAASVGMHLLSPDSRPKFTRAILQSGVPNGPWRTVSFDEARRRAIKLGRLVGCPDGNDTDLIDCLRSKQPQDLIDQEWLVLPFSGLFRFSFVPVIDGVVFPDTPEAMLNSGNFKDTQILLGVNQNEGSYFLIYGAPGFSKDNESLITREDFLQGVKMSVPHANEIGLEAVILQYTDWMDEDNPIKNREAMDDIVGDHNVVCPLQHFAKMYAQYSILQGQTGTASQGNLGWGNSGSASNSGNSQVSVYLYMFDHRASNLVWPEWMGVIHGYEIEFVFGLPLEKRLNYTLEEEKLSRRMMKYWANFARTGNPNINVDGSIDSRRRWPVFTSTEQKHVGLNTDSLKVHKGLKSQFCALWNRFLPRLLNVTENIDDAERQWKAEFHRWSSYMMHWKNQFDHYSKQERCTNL
T1 sequence (P00722 2-1024 limits assumed): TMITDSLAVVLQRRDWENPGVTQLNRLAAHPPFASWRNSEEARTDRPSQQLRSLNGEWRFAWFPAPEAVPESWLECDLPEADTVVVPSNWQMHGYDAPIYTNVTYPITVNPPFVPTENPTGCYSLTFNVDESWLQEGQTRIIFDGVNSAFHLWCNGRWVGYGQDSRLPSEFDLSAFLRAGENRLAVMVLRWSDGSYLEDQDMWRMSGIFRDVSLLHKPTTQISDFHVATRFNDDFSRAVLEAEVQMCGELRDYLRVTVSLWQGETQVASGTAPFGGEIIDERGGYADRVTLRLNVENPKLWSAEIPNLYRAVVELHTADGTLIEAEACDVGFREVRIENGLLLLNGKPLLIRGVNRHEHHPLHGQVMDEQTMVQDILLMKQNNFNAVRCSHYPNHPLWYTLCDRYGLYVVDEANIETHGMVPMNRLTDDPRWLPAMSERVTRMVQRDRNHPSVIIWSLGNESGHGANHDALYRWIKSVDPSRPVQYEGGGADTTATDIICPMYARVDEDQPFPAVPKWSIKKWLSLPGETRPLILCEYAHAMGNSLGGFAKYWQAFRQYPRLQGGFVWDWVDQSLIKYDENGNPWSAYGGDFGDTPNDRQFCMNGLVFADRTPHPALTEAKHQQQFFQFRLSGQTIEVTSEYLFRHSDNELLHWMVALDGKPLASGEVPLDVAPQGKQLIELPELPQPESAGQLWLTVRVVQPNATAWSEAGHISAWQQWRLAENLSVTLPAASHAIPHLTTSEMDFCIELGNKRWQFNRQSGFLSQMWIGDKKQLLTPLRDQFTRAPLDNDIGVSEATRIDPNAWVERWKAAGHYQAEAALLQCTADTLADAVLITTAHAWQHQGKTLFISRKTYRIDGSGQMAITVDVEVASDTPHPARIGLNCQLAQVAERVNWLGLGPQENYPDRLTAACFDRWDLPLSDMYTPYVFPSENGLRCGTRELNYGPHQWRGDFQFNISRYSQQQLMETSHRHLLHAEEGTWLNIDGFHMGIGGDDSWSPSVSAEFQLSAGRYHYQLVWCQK
T2 sequence (P81908 whole entry): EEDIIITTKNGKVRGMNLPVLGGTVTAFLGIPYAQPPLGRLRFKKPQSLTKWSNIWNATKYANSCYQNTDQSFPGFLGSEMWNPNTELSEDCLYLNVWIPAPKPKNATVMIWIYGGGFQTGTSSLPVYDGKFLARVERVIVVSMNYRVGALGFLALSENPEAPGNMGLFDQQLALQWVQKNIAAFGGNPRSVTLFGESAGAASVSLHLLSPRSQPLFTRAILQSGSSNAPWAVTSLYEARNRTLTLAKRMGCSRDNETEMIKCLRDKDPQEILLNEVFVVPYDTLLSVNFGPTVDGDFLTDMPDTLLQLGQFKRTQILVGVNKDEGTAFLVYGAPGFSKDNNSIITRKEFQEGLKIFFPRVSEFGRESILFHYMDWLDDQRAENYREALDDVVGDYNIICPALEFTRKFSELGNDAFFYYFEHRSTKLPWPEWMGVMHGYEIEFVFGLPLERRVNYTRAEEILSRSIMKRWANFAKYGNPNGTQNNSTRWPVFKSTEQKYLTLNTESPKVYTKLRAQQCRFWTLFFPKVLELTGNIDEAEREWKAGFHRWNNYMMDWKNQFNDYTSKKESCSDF
T4 sequence (P53341 whole entry): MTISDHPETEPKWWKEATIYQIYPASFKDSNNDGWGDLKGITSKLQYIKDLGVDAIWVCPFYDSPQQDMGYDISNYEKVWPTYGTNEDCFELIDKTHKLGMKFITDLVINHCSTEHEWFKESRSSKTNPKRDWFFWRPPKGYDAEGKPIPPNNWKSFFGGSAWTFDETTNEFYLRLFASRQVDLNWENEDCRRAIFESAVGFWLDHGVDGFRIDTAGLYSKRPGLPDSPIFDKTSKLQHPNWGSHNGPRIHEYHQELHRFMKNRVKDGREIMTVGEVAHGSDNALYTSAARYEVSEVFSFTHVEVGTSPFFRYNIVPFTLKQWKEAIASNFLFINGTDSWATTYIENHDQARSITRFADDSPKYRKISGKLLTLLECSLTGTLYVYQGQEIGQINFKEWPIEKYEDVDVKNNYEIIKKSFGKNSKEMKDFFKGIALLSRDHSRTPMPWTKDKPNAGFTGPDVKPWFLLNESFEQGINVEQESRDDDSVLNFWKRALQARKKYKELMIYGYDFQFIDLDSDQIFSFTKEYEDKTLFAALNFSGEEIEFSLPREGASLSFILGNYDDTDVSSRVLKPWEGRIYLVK
T5 sequence (Q42656 16-378): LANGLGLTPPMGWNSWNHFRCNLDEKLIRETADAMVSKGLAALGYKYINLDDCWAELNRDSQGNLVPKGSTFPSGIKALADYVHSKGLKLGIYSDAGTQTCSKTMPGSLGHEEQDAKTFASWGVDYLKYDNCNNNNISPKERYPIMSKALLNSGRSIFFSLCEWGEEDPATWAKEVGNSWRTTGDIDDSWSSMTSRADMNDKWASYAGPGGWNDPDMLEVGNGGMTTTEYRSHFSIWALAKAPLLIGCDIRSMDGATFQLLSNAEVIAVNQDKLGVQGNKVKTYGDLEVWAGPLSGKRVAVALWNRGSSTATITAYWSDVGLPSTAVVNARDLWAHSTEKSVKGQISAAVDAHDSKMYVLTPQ

OC[C@@H]1[C@@H](O)[C@H](O)[C@@H](O)CN1CCCCCOCCc1ccccc1 [Compound 12a]
IC50 [1]: > 100 µM | IC50 [2, 6]: > 100 µM | IC50 (BuChE (equine serum); [7]): > 100 µM | IC50 [3]: > 100 µM | Mode of inhibition β-Glucosidase (β-glucosidase (almonds)): Competitive | IC50 (β-glucosidase (almonds)): 28 µM | Ki (β-glucosidase (almonds)): 23 ± 4 µM | IC50 [4]: > 100 µM | IC50 [5]: > 100 µM

OC[C@@H]1[C@@H](O)[C@H](O)[C@@H](O)CN1CCCCCCOCCc1ccc2c(c1)OCO2 [Compound 11g]
IC50 [1]: > 100 µM | Mode of inhibition AChE [2]: Mixed | IC50 [2, 6]: 48 µM | Ki [2, 8]: 43 µM | Ki [2, 9]: 56 µM | Mode of inhibition BuChE (BuChE (equine serum)): Non-competitive | Ki (BuChE (equine serum); [10]): 9.2 ± 1.9 µM | Ki (BuChE (equine serum); [11]): 9.2 ± 1.9 µM | IC50 (BuChE (equine serum); [7]): 7.3 µM | IC50 [3]: > 100 µM | Mode of inhibition β-Glucosidase (β-glucosidase (almonds)): Competitive | IC50 (β-glucosidase (almonds)): 8.4 µM | Ki (β-glucosidase (almonds)): 9 µM | IC50 [4]: > 100 µM | IC50 [5]: > 100 µM

COc1ccc(CCOCCCCCCN2C[C@H](O)[C@@H](O)[C@H](O)[C@H]2CO)cc1 [Compound 11c]
IC50 [1]: > 100 µM | IC50 [2, 6]: > 100 µM | IC50 (BuChE (equine serum); [7]): > 100 µM | IC50 [3]: > 100 µM | Mode of inhibition β-Glucosidase (β-glucosidase (almonds)): Competitive | IC50 (β-glucosidase (almonds)): 6 µM | Ki (β-glucosidase (almonds)): 4.5 µM | IC50 [4]: > 100 µM | IC50 [5]: > 100 µM

OC[C@@H]1[C@@H](O)[C@H](O)[C@@H](O)CN1CCCCCOCCc1ccc(O)c(O)c1 [Compound 12d]
IC50 [2, 6]: > 100 µM | IC50 (BuChE (equine serum); [7]): > 100 µM | IC50 (β-glucosidase (almonds)): > 50 µM | IC50 [4]: > 100 µM

OC[C@H]1NC[C@H](O)[C@@H](O)[C@@H]1O [Compound 1-DNJ, 1-deoxynojirimycin, reference compound]
IC50 ([1]; E. coli enzyme, read-out: IC50 β-Galactosidase (E. coli)): > 100 µM | IC50 [2]: > 100 µM | IC50 (BuChE (equine serum)): 10 µM | Ki (BuChE (equine serum)): 16 ± 3 µM | Mode of inhibition BuChE (BuChE (equine serum)): Non-competitive | IC50 ([3]; Asp. Oryzae enzyme, read-out: IC50 β-Galactosidase (Asp. Oryzae)): > 100 µM | IC50 (β-glucosidase (almonds)): […]

COc1cc(CCOCCCCCCN2C[C@H](O)[C@@H](O)[C@H](O)[C@H]2CO)ccc1O [Compound 11f]
IC50 [1]: > 100 µM | Mode of inhibition AChE [2]: Non-competitive | IC50 [2, 6]: 7.3 µM | Ki [2, 8]: 17 ± 5 µM | Ki [2, 9]: 17 ± 5 µM | Mode of inhibition BuChE (BuChE (equine serum)): Mixed | Ki (BuChE (equine serum); [10]): 5 µM | Ki (BuChE (equine serum); [11]): 1.5 µM | IC50 (BuChE (equine serum); [7]): 1.8 µM | IC50 [3]: > 100 µM | Mode of inhibition β-Glucosidase (β-glucosidase (almonds)): Competitive | IC50 (β-glucosidase (almonds)): 8.2 µM | Ki (β-glucosidase (almonds)): 9.6 µM | IC50 [4]: > 100 µM | IC50 [5]: > 100 µM
